Test [1] deals with T1, MC1 receptor (Homo sapiens, UniProt Q01726).
T1 construct: endogenous in cells; host or cells: M4Be human melanocyte cell line
Nature of the test: cAMP production in M4Be human melanocyte cells (EC50 determination). Type of test: cell-based. The conditions noted are these: mean of at least two sets of independent experiments. Here is the method:
The M4Be human cell line (Jacubovich et al. Cancer Immunol. Immunother. 1979, 7, 59-64), a melanocyte cell line capable of producing melanins, was used in this study to determine the EC50 values.
The cells were maintained in Dulbecco's modified Eagle medium, with 10% of FCS, 1 mM of glutamine, 100 U/ml of penicillin and 10^−4 g/ml of streptomycin. All the cell lines were maintained at 37° C. in a 5% CO2 atmosphere, and the cell culture media were renewed every two days. The cells were plated onto a 96-well plate (Nunc, Roskilde, Denmark) 24 hours before contact with the peptides.
(§1) Briefly, the cells plated out the day before were incubated for 1 hour with 10^−4 M of adenine (Sigma) and then for 10 minutes in Krebs Ringer Hepes medium with 10^−4 M of isobutyl-1-methylxanthine (Sigma), 10^−4 M of 4-[(3-butoxy-4-methoxyphenyl)methyl]-2-imidazolidinone (Calbiochem) and tripeptides according to the invention, at 10^−7 M.
(§2) After this period of time, cell lysis was carried out according to the manufacturer's protocol.
The cAMP content was measured using a competition binding assay kit (RPN225, Amersham Pharmacia Biotech) according to the manufacturer's instructions. Each independent experiment was carried out at least twice in triplicate.
Determination of the EC50:
The curves were adjusted and the EC50 values were determined with nonlinear regression in the GraphPad Prism (GraphPad software). Each EC50 value was the mean of at least two sets of independent experiments.

The target of test [2] is T2, MC1 receptor (Mus musculus, UniProt Q01727).
T2 construct: The Cloudman S91 mouse melanoma cell line (Yasumara et al. Science. 154, pages 1186-1189) was used for the preliminary screening; endogenous in cells; host or cells: Cloudman S91 mouse melanoma cells
In words: cAMP induction on Cloudman S91 mouse melanoma cell line (preliminary screening). Type of test: cell-based. The note with it: tripeptide at 50 nM, percentage of the maximum response with control peptide (1) at 50 nM. The procedure:
The Cloudman S91 mouse melanoma cell line (Yasumara et al. Science. 154, pages 1186-1189) was used for the preliminary screening. The cells were maintained in HAM F10 with 10% of horse serum, 2% of fetal calf serum (FCS), 1 mM of glutamine, 100 U/ml of penicillin and 10^−4 g/ml of streptomycin (Eurobio, Les Ulis, France). All the cell lines were maintained at 37° C. in a 5% CO2 atmosphere, and the cell culture media were renewed every two days. The cells were plated out onto a 96-well plate (Nunc, Roskilde, Denmark) 24 hours before contact with the peptides.
as §1, §2
The cAMP content was measured using a competition binding assay kit (RPN225, Amersham Pharmacia Biotech) according to the manufacturer's instructions. […]
Thus, 1 tripeptide according to the invention was tested, at a concentration of 50 nM, on the induction of cAMP, which was calculated with respect to the response of cAMP production induced by α-MSH (50 nM).

Non-standard residues stand in square brackets, D forms with d. Residues, ends and D or L forms follow the SMILES beside them. *: point of attachment. Palmitoyl = CCCCCCCCCCCCCCCC(=O)*; Nle = CCCC[C@H](N)C(=O)O

T1 sequence (Q01726 whole entry): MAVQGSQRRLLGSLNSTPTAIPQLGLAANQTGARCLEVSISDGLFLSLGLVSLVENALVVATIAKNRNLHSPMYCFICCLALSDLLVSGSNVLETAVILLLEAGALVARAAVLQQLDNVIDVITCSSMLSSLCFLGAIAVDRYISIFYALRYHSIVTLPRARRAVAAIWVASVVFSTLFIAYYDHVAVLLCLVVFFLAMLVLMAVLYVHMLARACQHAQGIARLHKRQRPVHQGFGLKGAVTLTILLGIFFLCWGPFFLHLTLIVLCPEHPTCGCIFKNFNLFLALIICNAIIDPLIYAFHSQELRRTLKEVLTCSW
T2 sequence (Q01727 whole entry): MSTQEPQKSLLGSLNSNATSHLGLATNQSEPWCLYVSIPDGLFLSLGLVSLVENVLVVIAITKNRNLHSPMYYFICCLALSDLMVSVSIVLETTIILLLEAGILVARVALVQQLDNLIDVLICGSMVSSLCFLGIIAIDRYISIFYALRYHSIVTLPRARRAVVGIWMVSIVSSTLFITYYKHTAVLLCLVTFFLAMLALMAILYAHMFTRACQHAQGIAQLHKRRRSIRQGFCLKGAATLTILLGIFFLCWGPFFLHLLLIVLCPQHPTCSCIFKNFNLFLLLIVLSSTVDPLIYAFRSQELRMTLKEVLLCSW

On MC1 receptor [1], `CCCC[C@H](NC(C)=O)C(=O)N[C@@H](C)C(=O)N[C@@H](Cc1c[nH]cn1)C(=O)N[C@H](Cc1ccccc1)C(=O)N[C@@H](CCCNC(=N)N)C(=O)N[C@@H](Cc1c[nH]c2ccccc12)C(N)=O` [control peptide, Ac-Nle-Ala-His-(D)Phe-Arg-Trp-NH2, reference compound] (Ac-[Nle]AH[dF]RW-NH2) had an EC50 of 4 nM.
Consider `CCCCCCCCCCCCCCCC(=O)N[C@@H](Cc1c[nH]cn1)C(=O)N[C@H](Cc1ccccc1)C(=O)N[C@@H](CCCNC(=N)N)C(N)=O` [tripeptide 1, Palm-His-DPhe-Arg-NH2] (Palmitoyl-His-[dF]-Arg-NH2), for which, at MC1 receptor [1], a half-maximal effect (EC50) was put at 2.3 nM. In addition, on MC1 receptor [2], the “% cAMP induction” value is reported as 147%.
At MC1 receptor [1], `CCCCCCCCCCCCCCCC(=O)N[C@@H](Cc1c[nH]cn1)C(=O)N[C@H](Cc1ccccc1)C(=O)N[C@@H](Cc1c[nH]c2ccccc12)C(N)=O` [tripeptide 2, Palm-His-DPhe-Trp-NH2] (Palmitoyl-His-[dF]-Trp-NH2) had an EC50 of 17.3 nM.

As a reminder, the EC50 is the midpoint of the concentration-response curve.
